Key:
human TASK-3 = human TASK-3 (Homo sapiens, UniProt Q9NPC2); experiment: Inhibition of recombinant TASK-3 in stably transfected CHO cells, KCl-induced depolarization, voltage-sensitive dye (B-2); type: cell-based; design: expressed in transfected cells; host or cells: stably transfected CHO cells; conditions: depolarization induced by 40 mM potassium chloride, some mean values from multiple determinations
Description: (§1) B-2. Inhibition of Recombinant TASK-1 and TASK-3 In Vitro
(§2) The investigations on the inhibition of the recombinant TASK-1 and TASK-3 channels were conducted using stably transfected CHO cells. The compounds of the invention were tested here with administration of 40 mM of potassium chloride in the presence of a voltage-sensitive dye using the method described in detail in the following references [Whiteaker et al., Validation of FLIPR membrane potential dye for high-throughput screening of potassium channel modulators, J. Biomol. Screen. 6 (5), 305-312 (2001); Molecular Devices FLIPR Application Note: Measuring membrane potential using the FLIPR® membrane potential assay kit on Fluorometric Imaging Plate Reader (FLIPR®) systems, http://www.moleculardevices.com/reagents-supplies/assay-kits/ion-channels/flipr-membrane-potential-assay-kits]. The activity of the test substances was determined as their ability to inhibit a depolarization induced in the recombinant cells by 40 mM potassium chloride. The concentration which can block half of this depolarization is referred to as IC50).
(§3) Table 2 below lists the IC50 values from this assay determined for individual working examples of the invention (some as mean values from multiple independent individual determinations): […]

human TASK-1 = human TASK-1 (Homo sapiens, UniProt O14649); experiment: Inhibition of recombinant TASK-1 in stably transfected CHO cells, KCl-induced depolarization, voltage-sensitive dye (B-2); type: cell-based; design: expressed in transfected cells; host or cells: stably transfected CHO cells; conditions: depolarization induced by 40 mM potassium chloride, some mean values from multiple determinations
Chain of human TASK-1 (O14649 whole entry): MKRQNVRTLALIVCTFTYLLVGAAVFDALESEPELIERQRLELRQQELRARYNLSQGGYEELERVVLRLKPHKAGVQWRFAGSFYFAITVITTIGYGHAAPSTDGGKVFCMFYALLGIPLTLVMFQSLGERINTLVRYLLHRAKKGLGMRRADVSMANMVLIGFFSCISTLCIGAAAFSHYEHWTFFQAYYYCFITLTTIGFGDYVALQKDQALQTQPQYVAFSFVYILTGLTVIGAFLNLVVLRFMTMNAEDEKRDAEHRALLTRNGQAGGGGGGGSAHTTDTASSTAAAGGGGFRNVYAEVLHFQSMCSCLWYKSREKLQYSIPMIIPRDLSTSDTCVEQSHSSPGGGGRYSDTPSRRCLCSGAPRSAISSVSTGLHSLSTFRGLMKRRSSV
Description: as §1, §2, §3

Chain of human TASK-3 (Q9NPC2 whole entry): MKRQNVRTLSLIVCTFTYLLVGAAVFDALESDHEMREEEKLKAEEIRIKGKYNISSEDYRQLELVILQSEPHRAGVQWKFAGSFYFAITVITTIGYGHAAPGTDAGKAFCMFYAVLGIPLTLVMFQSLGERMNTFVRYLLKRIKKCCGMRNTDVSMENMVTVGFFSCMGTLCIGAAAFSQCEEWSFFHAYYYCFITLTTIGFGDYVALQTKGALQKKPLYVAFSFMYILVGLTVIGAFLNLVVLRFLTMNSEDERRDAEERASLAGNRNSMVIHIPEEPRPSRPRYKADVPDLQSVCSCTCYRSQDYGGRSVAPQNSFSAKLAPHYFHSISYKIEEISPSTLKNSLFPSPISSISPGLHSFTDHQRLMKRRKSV

SMILES | IC50 (human TASK-3) | IC50 (human TASK-1)
COc1ccc(F)c(C(=O)N2C[C@@H]3CC[C@H]2CN3Cc2c(-c3ccc(Cl)cc3)nc3ccccn23)n1 (single isomer, unassigned; enantiomer 1) [Example 23] | 170 nM | 790 nM
COc1ccc(Cl)c(C(=O)N2CC3CCC2CN3Cc2c(-c3ccc(Cl)cn3)nc3ccccn23)n1 (single isomer, unassigned; enantiomer 1) [Example 25, (3-Chloro-6-methoxypyridin-2-yl)(5-{[2-(5-chloropyridin-2-yl)imidaz[1,2-a]pyridin-3-yl]methyl}-2,5-diazabicyclo[2.2.2]oct-2-yl)methanone (enantiomer 1)] | 5.6 nM | 120 nM
O=C(c1cccc(OC(F)F)n1)N1CC2CCC1CN2Cc1c(-c2ccc(Cl)cn2)nc2ccccn12 (single isomer, unassigned; enantiomer 1) [Example 200, (5-{[2(5-Chloropyridin-2-yl)imidazo[1,2-a]pyridin-3-yl]methyl}-2,5-diazabicyclo[2.2.2]oct-2-yl)[6-(difluoromethoxy)pyridin-2-yl]methanone (enantiomer 1)] | 75 nM | 877 nM
CC(C)(C)OC(=O)N1C2COCC1CN(Cc1c(-c3ccc(Cl)cc3)nc3ccccn13)C2 [Example 4, tert-Butyl 7-{[2-(4-chlorophenyl)imidazo[1,2-a]pyridin-3-yl]methyl}-3-oxa-7,9-diazabicyclo[3.3.1]nonane-9-carboxylate] | 43 nM | 560 nM
CC(C)(C)OC(=O)N1CC2CCC(C1)N2Cc1c(-c2ccc(Br)cc2)nc2ccccn12 [Example 5] | 150 nM | 200 nM
CC(C)(C)OC(=O)N1CC2CCC(C1)N2Cc1c(-c2ccc(Cl)cc2)nc2ccccn12 [Example 6] | 410 nM | 394 nM
CC(C)(C)OC(=O)N1C2CCC1CN(Cc1c(-c3ccc(Cl)cc3)nc3ccccn13)C2 [Example 10] | 230 nM | 1090 nM
CC(C)(C)OC(=O)N1C2CCC1CN(Cc1c(-c3ccc(Br)cc3)nc3ccccn13)C2 [Example 11] | 940 nM | 1400 nM
CC(C)c1ccc(-c2nc3ccccn3c2CN2CC3CCC(C2)N3C(=O)OC(C)(C)C)cc1 [Example 12] | 8300 nM | 3000 nM
CC(C)(C)OC(=O)N1C2CCC1CN(Cc1c(-c3ccc(Cl)cn3)nc3ccccn13)C2 [Example 14] | 860 nM | 5100 nM
COc1ccc(F)c(C(=O)N2C3COCC2CN(Cc2c(-c4ccc(Cl)cc4)nc4ccccn24)C3)n1 [Example 30, (7-{[2-(4-Chlorophenyl)imidazo[1,2a]pyridin-3-yl]methyl}-3-oxa-7,9-diazabicyclo[3.3.1]non-9-yl)(3-fluoro-6-methoxypyridin-2-yl)methanone] | 21 nM | 770 nM
O=C(c1cccc(OC2CCC2)n1)N1C2COCC1CN(Cc1c(-c3ccc(Cl)cc3)nc3ccccn13)C2 [Example 31, (7-{[2-(4-Chlorophenyl)imidazo[1,2-a]pyridin-3-yl]methyl}-3-oxa-7,9-diazabicyclo[3.3.1]non-9-yl)[6-(cyclobutyloxy)pyridin-2-yl]methanone] | 26 nM | 310 nM
COc1ccc(Cl)c(C(=O)N2C3COCC2CN(Cc2c(-c4ccc(Cl)cc4)nc4ccccn24)C3)n1 [Example 32, (3-Chloro-6-methoxypyridin-2-yl)(7-{[2-(4-chlorophenyl)imidazo[1,2-a]pyridin-3-yl]methyl}-3-oxa-7,9-diazabicyclo[3.3.1]non-9-yl)methanone] | 9.6 nM | 270 nM
O=C(c1ccccc1F)N1CC2CCC1CN2Cc1c(-c2ccc(Cl)cn2)nc2ccccn12 (centres unmarked) [Example 64] | 17 nM | 280 nM
COc1cccc(C(=O)N2CC3CCC2CN3Cc2c(-c3ccc(Cl)cn3)nc3ccccn23)n1 (centres unmarked) [Example 65] | 460 nM | 2000 nM
O=C(c1ccccc1F)N1C2COCC1CN(Cc1c(-c3ccc(Cl)cc3)nc3ccccn13)C2 [Example 69] | 101 nM | 870 nM
